Data from the NIST ThermoML archive (doi:10.1021/je5007696).
± gives the expanded uncertainty stated by the source.

Assay: xn = mol fraction of the nth substance listed
Conditions: 100 kPa, Liquid; for viscosity: Concentric cylinders viscometry; for mass density: Vibrating tube method

CCC(C)=O [butanone] + CCCCO
Conditions | mass density [kg/m3] | viscosity [mPa·s]
288.15 K, x1 = 0.0997 | 813.126 ± 0.17 | 2.293 ± 0.013
288.15 K, x1 = 0.1999 | 812.877 ± 0.17 | 1.645 ± 0.011
288.15 K, x1 = 0.3003 | 812.583 ± 0.18 | 1.257 ± 0.01
288.15 K, x1 = 0.4008 | 812.253 ± 0.18 | 1.009 ± 0.0095
288.15 K, x1 = 0.5003 | 811.906 ± 0.19 | 0.8332 ± 0.009
288.15 K, x1 = 0.6001 | 811.555 ± 0.2 | 0.7013 ± 0.0086
288.15 K, x1 = 0.6992 | 811.203 ± 0.21 | 0.5975 ± 0.0084
288.15 K, x1 = 0.7991 | 810.843 ± 0.22 | 0.5248 ± 0.0082
288.15 K, x1 = 0.899 | 810.477 ± 0.23 | 0.4708 ± 0.008
288.15 K, x1 = 1 | 810.133 ± 0.24 | 0.4306 ± 0.008
293.15 K, x1 = 0.0997 | 809.157 ± 0.17 | 2.034 ± 0.013
293.15 K, x1 = 0.1999 | 808.747 ± 0.17 | 1.483 ± 0.011
293.15 K, x1 = 0.3003 | 808.3 ± 0.18 | 1.147 ± 0.0098
293.15 K, x1 = 0.4008 | 807.824 ± 0.18 | 0.9297 ± 0.0092
293.15 K, x1 = 0.5003 | 807.337 ± 0.19 | 0.7756 ± 0.0088
293.15 K, x1 = 0.6001 | 806.848 ± 0.2 | 0.6603 ± 0.0085
293.15 K, x1 = 0.6992 | 806.362 ± 0.21 | 0.5696 ± 0.0083
293.15 K, x1 = 0.7991 | 805.875 ± 0.22 | 0.4997 ± 0.0081
293.15 K, x1 = 0.899 | 805.39 ± 0.23 | 0.4505 ± 0.008
293.15 K, x1 = 1 | 804.926 ± 0.24 | 0.4136 ± 0.0079
298.15 K, x1 = 0.0997 | 805.165 ± 0.17 | 1.814 ± 0.012
298.15 K, x1 = 0.1999 | 804.592 ± 0.17 | 1.343 ± 0.01
298.15 K, x1 = 0.3003 | 803.992 ± 0.18 | 1.051 ± 0.0095
298.15 K, x1 = 0.4008 | 803.369 ± 0.19 | 0.8588 ± 0.009
298.15 K, x1 = 0.5003 | 802.741 ± 0.19 | 0.7227 ± 0.0086
298.15 K, x1 = 0.6001 | 802.114 ± 0.2 | 0.6178 ± 0.0084
298.15 K, x1 = 0.6992 | 801.494 ± 0.21 | 0.5358 ± 0.0082
298.15 K, x1 = 0.7991 | 800.878 ± 0.22 | 0.475 ± 0.008
298.15 K, x1 = 0.899 | 800.271 ± 0.23 | 0.4313 ± 0.0079
298.15 K, x1 = 1 | 799.695 ± 0.24 | 0.3962 ± 0.0078
303.15 K, x1 = 0.0997 | 801.147 ± 0.17 | 1.626 ± 0.011
303.15 K, x1 = 0.1999 | 800.407 ± 0.17 | 1.221 ± 0.0099
303.15 K, x1 = 0.3003 | 799.653 ± 0.18 | 0.9652 ± 0.0092
303.15 K, x1 = 0.4008 | 798.884 ± 0.19 | 0.7945 ± 0.0088
303.15 K, x1 = 0.5003 | 798.115 ± 0.19 | 0.6753 ± 0.0085
303.15 K, x1 = 0.6001 | 797.349 ± 0.2 | 0.5823 ± 0.0083
303.15 K, x1 = 0.6992 | 796.597 ± 0.21 | 0.5093 ± 0.0081
303.15 K, x1 = 0.7991 | 795.852 ± 0.22 | 0.4521 ± 0.008
303.15 K, x1 = 0.899 | 795.126 ± 0.23 | 0.4114 ± 0.0079
303.15 K, x1 = 1 | 794.435 ± 0.24 | 0.3793 ± 0.0078
308.15 K, x1 = 0.0997 | 797.097 ± 0.17 | 1.465 ± 0.011
308.15 K, x1 = 0.1999 | 796.195 ± 0.17 | 1.115 ± 0.0096
308.15 K, x1 = 0.3003 | 795.288 ± 0.18 | 0.8886 ± 0.009
308.15 K, x1 = 0.4008 | 794.369 ± 0.19 | 0.7364 ± 0.0086
308.15 K, x1 = 0.5003 | 793.457 ± 0.19 | 0.6314 ± 0.0084
308.15 K, x1 = 0.6001 | 792.551 ± 0.2 | 0.5453 ± 0.0082
308.15 K, x1 = 0.6992 | 791.666 ± 0.21 | 0.48 ± 0.008
308.15 K, x1 = 0.7991 | 790.793 ± 0.22 | 0.4294 ± 0.0079
308.15 K, x1 = 0.899 | 789.946 ± 0.23 | 0.3918 ± 0.0078
308.15 K, x1 = 1 | 789.142 ± 0.24 | 0.3626 ± 0.0078
313.15 K, x1 = 0.0997 | 793.009 ± 0.17 | 1.327 ± 0.01
313.15 K, x1 = 0.1999 | 791.945 ± 0.17 | 1.022 ± 0.0093
313.15 K, x1 = 0.3003 | 790.885 ± 0.18 | 0.8197 ± 0.0088
313.15 K, x1 = 0.4008 | 789.819 ± 0.19 | 0.6843 ± 0.0085
313.15 K, x1 = 0.5003 | 788.763 ± 0.2 | 0.5907 ± 0.0083
313.15 K, x1 = 0.6001 | 787.719 ± 0.2 | 0.5143 ± 0.0081
313.15 K, x1 = 0.6992 | 786.701 ± 0.21 | 0.4552 ± 0.0079
313.15 K, x1 = 0.7991 | 785.7 ± 0.22 | 0.4073 ± 0.0078
313.15 K, x1 = 0.899 | 784.731 ± 0.23 | 0.3723 ± 0.0078
313.15 K, x1 = 1 | 783.814 ± 0.24 | 0.3461 ± 0.0077
318.15 K, x1 = 0.0997 | 788.88 ± 0.17 | 1.206 ± 0.0098
318.15 K, x1 = 0.1999 | 787.652 ± 0.18 | 0.939 ± 0.0091
318.15 K, x1 = 0.3003 | 786.442 ± 0.18 | 0.7575 ± 0.0086
318.15 K, x1 = 0.4008 | 785.228 ± 0.19 | 0.637 ± 0.0083
318.15 K, x1 = 0.5003 | 784.03 ± 0.2 | 0.5532 ± 0.0081
318.15 K, x1 = 0.6001 | 782.849 ± 0.2 | 0.485 ± 0.008
318.15 K, x1 = 0.6992 | 781.696 ± 0.21 | 0.43 ± 0.0079
318.15 K, x1 = 0.7991 | 780.568 ± 0.22 | 0.386 ± 0.0078
318.15 K, x1 = 0.899 | 779.478 ± 0.23 | 0.3532 ± 0.0077
318.15 K, x1 = 1 | 778.451 ± 0.24 | 0.3303 ± 0.0077
323.15 K, x1 = 0.0997 | 784.708 ± 0.17 | 1.096 ± 0.0095
323.15 K, x1 = 0.1999 | 783.318 ± 0.18 | 0.8726 ± 0.0089
323.15 K, x1 = 0.3003 | 781.954 ± 0.18 | 0.7156 ± 0.0085
323.15 K, x1 = 0.4008 | 780.593 ± 0.19 | 0.6041 ± 0.0082
323.15 K, x1 = 0.5003 | 779.253 ± 0.2 | 0.5225 ± 0.0081
323.15 K, x1 = 0.6001 | 777.934 ± 0.2 | 0.4597 ± 0.0079
323.15 K, x1 = 0.6992 | 776.652 ± 0.21 | 0.4101 ± 0.0078
323.15 K, x1 = 0.7991 | 775.398 ± 0.22 | 0.369 ± 0.0077
323.15 K, x1 = 0.899 | 774.188 ± 0.23 | 0.3356 ± 0.0077
323.15 K, x1 = 1 | 773.047 ± 0.24 | 0.3168 ± 0.0076
